Read-outs that look alike come from different tables or passages of the source.
Columns and labels:
[1] = target: T1, human CB2 receptors (Homo sapiens, UniProt P34972); test: functional cAMP assay, CHO cells expressing human CB2 receptors; type: cell-based
T1 construct: expressed in transfected cells; host or cells: CHO cells
Description: (§1) CHO cells expressing human CB1 or CB2 receptors are seeded 17-24 hours prior to the experiment 50.000 cells per well in a black 96 well plate with flat clear bottom (Corning Costar #3904) in DMEM (Invitrogen No. 31331), lx HT supplement, with 10% fetal calf serum and incubated at 5% CO2 and 37° C. in a humidified incubator. The growth medium was exchanged with Krebs Ringer Bicarbonate buffer with 1 mM IBMX and incubated at 30° C. for 30 min. Compounds were added to a final assay volume of 100 μl and incubated for 30 min at 30° C. Using the cAMP-Nano-TRF detection kit the assay (Roche Diagnostics) was stopped by the addition of 50 μl lysis reagent (Tris, NaCl, 1.5% Triton X100, 2.5% NP40, 10% NaN3) and 50 μl detection solutions (20 μM mAb Alexa700-cAMP 1:1, and 48 μM Ruthenium-2-AHA-cAMP) and shaken for 2 h at room temperature. The time-resolved energy transfer is measured by a TRF reader (Evotec Technologies GmbH), equipped with a ND:YAG laser as excitation source. The plate is measured twice with the excitation at 355 nm and at the emission with a delay of 100 ns and a gate of 100 ns, total exposure time 10 s at 730 (bandwidth 30 nm) or 645 nm (bandwidth 75 nm), respectively. The FRET signal is calculated as follows: FRET=T730-Alexa730-P(T645-B645) with P=Ru730-B730/Ru645-B645, where T730 is the test well measured at 730 nM, T645 is the test well measured at 645 nm, B730 and B645 are the buffer controls at 730 nm and 645 nm, respectively. cAMP content is determined from the function of a standard curve spanning from 10 μM to 0.13 nM cAMP.
(§2) EC50 values were determined using Activity Base analysis (ID Business Solution, Limited). The EC50 values for a wide range of cannabinoid agonists generated from this assay were in agreement with the values published in the scientific literature.

[2] = target: T2, human CB1 receptors (Homo sapiens, UniProt P21554); test: functional cAMP assay, CHO cells expressing human CB1 receptors; type: cell-based
T2 construct: expressed in transfected cells; host or cells: CHO cells
T2 sequence (P21554 whole entry): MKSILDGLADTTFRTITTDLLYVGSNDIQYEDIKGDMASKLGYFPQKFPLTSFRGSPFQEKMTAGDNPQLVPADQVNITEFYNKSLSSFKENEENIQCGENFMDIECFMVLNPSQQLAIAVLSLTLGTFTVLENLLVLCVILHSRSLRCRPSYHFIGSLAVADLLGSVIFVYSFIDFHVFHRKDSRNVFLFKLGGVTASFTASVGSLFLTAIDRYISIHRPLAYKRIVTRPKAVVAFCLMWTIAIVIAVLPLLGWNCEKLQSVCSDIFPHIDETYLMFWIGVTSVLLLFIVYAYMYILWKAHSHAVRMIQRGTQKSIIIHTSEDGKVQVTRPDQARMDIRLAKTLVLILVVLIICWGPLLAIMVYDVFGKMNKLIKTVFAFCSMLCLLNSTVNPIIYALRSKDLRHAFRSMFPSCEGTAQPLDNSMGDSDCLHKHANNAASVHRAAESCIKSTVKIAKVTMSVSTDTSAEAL
Description: as §1, §2

[3] = human EC50, functional cAMP assay, CHO cells expressing human CB2, read-out: EC50:CB2

T1 sequence (P34972 whole entry): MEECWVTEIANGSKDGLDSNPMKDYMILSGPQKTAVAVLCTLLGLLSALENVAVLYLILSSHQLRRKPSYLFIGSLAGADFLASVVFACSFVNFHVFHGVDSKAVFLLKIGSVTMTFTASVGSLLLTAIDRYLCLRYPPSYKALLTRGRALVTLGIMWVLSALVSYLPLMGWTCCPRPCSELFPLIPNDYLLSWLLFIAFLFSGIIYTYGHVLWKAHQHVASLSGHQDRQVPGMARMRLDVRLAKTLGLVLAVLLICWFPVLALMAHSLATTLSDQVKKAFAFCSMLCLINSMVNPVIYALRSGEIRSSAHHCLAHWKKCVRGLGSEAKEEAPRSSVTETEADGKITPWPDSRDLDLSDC

SMILES | EC50 [1] | EC50 [2] | EC50 [1, 3]
CC(C)(C)c1nc(N2CCC(O)C2)c2ccn(Cc3ncccc3Cl)c2n1 (centres unmarked) [Example 30, 1-[2-tert-butyl-7-[(3-chloropyridin-2-yl)methyl]pyrrolo[2,3-d]pyrimidin-4-yl]pyrrolidin-3-ol] | 8.4 nM | > 10000 nM | –
Cc1noc(Cn2ccc3c(N4CCC(O)C4)nc(C(C)(C)C)nc32)n1 (centres unmarked) [Example 31, 1-[2-tert-butyl-7-[(3-methyl-1,2,4-oxadiazol-5-yl)methyl]pyrrolo[2,3-d]pyrimidin-4-yl]pyrrolidin-3-ol] | – | > 10000 nM | 316 nM
Cc1nonc1Cn1ccc2c(N3CCC(O)C3)nc(C(C)(C)C)nc21 (centres unmarked) [Example 32, 1-[2-tert-butyl-7-[(4-methyl-1,2,5-oxadiazol-3-yl)methyl]pyrrolo[2,3-d]pyrimidin-4-yl]pyrrolidin-3-ol] | 18.9 nM | > 10000 nM | –
Cc1nnc(Cn2ccc3c(N4CCC(O)C4)nc(C(C)(C)C)nc32)o1 (centres unmarked) [Example 33, 1-[2-tert-butyl-7-[(5-methyl-1,3,4-oxadiazol-2-yl)methyl]pyrrolo[2,3-d]pyrimidin-4-yl]pyrrolidin-3-ol] | – | > 10000 nM | 350 nM
Cn1nnnc1Cn1ccc2c(N3CCC(O)C3)nc(C(C)(C)C)nc21 (centres unmarked) [Example 34, 1-[2-tert-butyl-7-[(1-methyltetrazol-5-yl)methyl]pyrrolo[2,3-d]pyrimidin-4-yl]pyrrolidin-3-ol] | – | > 10000 nM | 134 nM
CC(=O)OC1CCN(c2nc(C(C)(C)C)nc3c2ccn3Cc2nnnn2C)C1 (centres unmarked) [Example 35, [1-[2-tert-butyl-7-[(1-methyltetrazol-5-yl)methyl]pyrrolo[2,3-d]pyrimidin-4-yl]pyrrolidin-3-yl]acetate] | – | > 10000 nM | 278 nM
CC(=O)OC1CCN(c2nc(C(C)(C)C)nc3c2ccn3Cc2cccc(Cl)c2Cl)C1 (centres unmarked) [Example 36, [1-[2-tert-butyl-7-[(2,3-dichlorophenyl)methyl]pyrrolo[2,3-d]pyrimidin-4-yl]pyrrolidin-3-yl]acetate] | 85.3 nM | > 10000 nM | –
CC(=O)OC1CCN(c2nc(C(C)(C)C)nc3c2ccn3Cc2nonc2C)C1 (centres unmarked) [Example 37, [1-[2-tert-butyl-7-[(4-methyl-1,2,5-oxadiazol-3-yl)methyl]pyrrolo[2,3-d]pyrimidin-4-yl]pyrrolidin-3-yl]acetate] | 88.7 nM | > 10000 nM | –
CC(C)(C)c1nc(N2CCC(O)C2)c2ccn(Cc3nnnn3C3CC3)c2n1 (centres unmarked) [Example 38, 1-[2-tert-butyl-7-[(1-cyclopropyltetrazol-5-yl)methyl]pyrrolo[2,3-d]pyrimidin-4-yl]pyrrolidin-3-ol] | – | > 10000 nM | 173 nM
CC(C)(C)c1nc(N2CCC(O)C2)c2ccn([C@@H]3CCOC3)c2n1 (stereo partly drawn) [Example 39, 1-[2-tert-butyl-7-[(3R)-oxolan-3-yl]pyrrolo[2,3-d]pyrimidin-4-yl]pyrrolidin-3-ol] | 35 nM | > 10000 nM | –
CC(C)(C)c1nc(N2CCC(O)C2)c2ccn(Cc3c[nH]nc3C(F)(F)F)c2n1 (centres unmarked) [Example 40, 1-[2-tert-butyl-7-[[3-(trifluoromethyl)-1H-pyrazol-4-yl]methyl]pyrrolo[2,3-d]pyrimidin-4-yl]pyrrolidin-3-ol] | 35.6 nM | > 10000 nM | –
CC(C)(C)c1nc(N2CCC(F)(F)C2)c2ccn(Cc3c[nH]nc3C(F)(F)F)c2n1 [Example 41, 2-tert-butyl-4-(3,3-difluoropyrrolidin-1-yl)-7-[[3-(trifluoromethyl)-1H-pyrazol-4-yl]methyl]pyrrolo[2,3-d]pyrimidine] | 13.5 nM | 1840 nM | –
CC(C)(C)c1nc(N2CC[C@H](O)C2)c2ccn(Cc3cccc(Cl)c3Cl)c2n1 [Example 42, (3S)-1-[2-tert-butyl-7-[(2,3-dichlorophenyl)methyl]pyrrolo[2,3-d]pyrimidin-4-yl]pyrrolidin-3-ol] | 3.5 nM | > 10000 nM | –

— patent US9580435B2, “Pyrrolo[2,3-D]pyrimidine derivatives as CB2 receptor agonists” (priority 2013, dated 2017)
